{"source": "patent US4399817A", "about": "“Boron containing polyphosphonates for the treatment of calcific tumors” (The Procter & Gamble Company, priority 1981, dated 1983)", "key": {"[1]": {"assay": "Oral tablets followed by neutron irradiation in patient with calcified tumor (Example IX)", "format": "in vivo, patient (human)", "method": "Tablets are prepared by conventional methods, formulated as follows: […]"}, "[2]": {"assay": "Water solubility (remark in synthesis)", "format": "physicochemical", "method": "1,2-Diphosphono-o-carborane was prepared as follows: To a solution of 5 g o-carborane in dry THF was added dropwise 46.7 ml of a 1.5 N solution of n-butyllithium at 0° C. To the mixture was then quickly added 11 g diethyl chlorophosphite. The solution was refluxed for several hours. The THF was evaporated. The resulting residue contained unreacted o-carborane and 1,2-di(diethyl phosphite) o-carborane. The latter was hydrolized to the corresponding acid in 500 ml 6 N HCl by refluxing during 24 hours, after which the remaining HCl solution was evaporated. […] The water was then evaporated, and the residue mixed with 50 ml 10% hydrogen peroxide. The mixture was carefully refluxed until the reaction was completed. The structure of 1,2-diphosphono-o-carborane was verified by ^31 P and ^11 B NMR."}, "[3]": {"assay": "Crystal Growth Inhibition Test", "details": "for Lag Time: pH 7.4", "method": "The test is conducted as follows:\n50 ml of a 0.01 M KH2 PO4 stock solution is diluted with 1000 ml N2 purged distilled water. 1 ml of an aqueous solution of the polyphosphonate to be tested (at a concentration to provide the desired ultimate concentration in the reaction mixture) is added to the diluted KH2 PO4 solution and the solution is adjusted to pH 7.4 with potassium hydroxide. To this solution is added 50 ml of a 0.0175 N CaCl2 solution preadjusted to pH 7.4. The KOH consumption is recorded as a function of time. The rate of KOH consumption is directly related to the rate of calcium phosphate formation. In the absence of polyphosphonate the formation of calcium phosphate starts at t=o, i.e. when the solutions of KH2 PO4 and CalCl2 are mixed. Low levels of polyphosphonates are capable of inhibiting the formation of calcium phosphate for 20 minutes or longer. This effect depends on the propensity of the polyphosphonates to adsorb on calcium phosphate crystal nuclei.\n1-Methyl, 2-(2,2-ethane diphosphonic acid) o-carborane (MECB) was subjected to the Crystal Growth Inhibition Test."}, "[4]": {"assay": "Animal skeletal uptake test (99mTc scan)", "format": "in vivo, Rabbits", "details": "99mTc-labelled solution, 1.0 ml injected; scanned at 3 hrs and 21 hrs", "method": "In this test the skeletal uptake of a polyphosphonate compound is established as follows:\nA reducing solution is prepared by mixing 5.0 ml of a 0.34 N NTA solution, 1.0 ml of a 0.84 M SnCl2 solution and 3.0 ml H2 O. The pH of the solution is adjusted to 5.6 with 1.0 N NaOH. 100 ul of the reducing solution is added to 1.0 ml of a ^99m TcO4^- solution, containing 19.6 mCi. The reduction of TcO4^- is checked by TLC. 0.9 ml of a 35 mg/ml solution of a boron polyphosphonate is added to the reduced technetiate solution. Rabbits are injected with 1.0 ml each of this solution. The animals are scanned for skeletal uptake at 3 hrs and 21 hrs after injection."}, "[5]": {"assay": "Oral capsules followed by neutron irradiation in adult with a bone tumor (Example VIII)", "format": "in vivo, adult (human)", "details": "oral capsules (350 mg MECB or replacement) twice daily, ten days; 37 eV neutron beam about 24 hrs after last capsule", "method": "Capsules are prepared by conventional methods, comprised as follows:\nTo a 76 kg adult with a bone tumor are administered orally twice daily the above capsules for a period of ten days. About 24 hrs after the last capsule is administered, the tumor site is irradiated with a 37 eV neutron beam of 2.4×10^8 neutrons cm^-2 s^-1."}}}
{"compound": "1,2-di(2-chloro-2,2-ethane diphosphonic acid)o-carborane [DC1EDP]", "values": [{"measurement": "deposition of 10B in the calcified tumor tissue", "setting": "[1]; oral tablets (25 mg) four times daily", "result": "significant amounts"}, {"measurement": "levels of localized alpha particles emitted", "setting": "[1]; oral tablets four times daily, irradiation by 37 eV neutrons", "result": "effective levels"}]}
{"compound": "1,2-dicarbaclosododeca borane (12) [o-carborane]", "values": [{"measurement": "solubility in water", "setting": "[2]", "result": "not soluble in water"}]}
{"compound": "1-Methyl, 2-(2,2-ethane diphosphonic acid) o-carborane [MECB]", "values": [{"measurement": "Lag Time", "setting": "[3]; Concentration 1 × 10^-6 Mole", "result": 25, "unit": "min"}, {"measurement": "Lag Time", "setting": "[3]; Concentration 2 × 10^-6 Mole", "result": 37, "unit": "min"}, {"measurement": "capability to retard the formation of calcium phosphate", "setting": "[3]; compared with Cl2 MDP, Table I", "result": "the same as that of Cl2 MDP"}, {"measurement": "skeletal affinity", "setting": "[4]", "result": "high skeletal affinity"}, {"measurement": "level of alpha and Li particles generated in the tumor tissue", "setting": "[5]", "result": "effective level"}]}
{"compound": "O=P(O)(O)C(Cl)(Cl)P(=O)(O)O", "note": "[Cl2 MDP, dichloromethylene diphosphonate, reference compound]", "values": [{"measurement": "Lag Time", "setting": "[3]; Concentration 1 × 10^-6 Mole", "result": 18, "unit": "min"}, {"measurement": "Lag Time", "setting": "[3]; Concentration 2 × 10^-6 Mole", "result": 41, "unit": "min"}]}
{"compound": "CC(O)(P(=O)(O)O)P(=O)(O)O", "note": "[EHDP, Ethane hydroxy diphosphonate, reference compound]", "values": [{"measurement": "Lag Time", "setting": "[3]; Concentration 1 × 10^-6 Mole", "result": 82, "unit": "min"}]}
